Data: paper PMC4552634, “A New Set of Chemical Starting Points with Plasmodium falciparum Transmission-Blocking Potential for Antimalarial Drug Discovery” (PLoS ONE, 2015)
pIC50: −log10 of the molar value. Read-outs that look alike come from different tables or passages of the source.

Key:
[1] = tested on: P. falciparum stage V gametocytes; experiment: Gametocytocidal ATP bioluminescence assay (single point 5 μM and 1 μM, dose-response); format: cell-based, Plasmodium falciparum; settings: for Ratio IC50 HepG2/IC50 P. falciparum: IC50 HepG2 divided by IC50 P. falciparum gametocytes; for IC50: P. falciparum gametocytes, average
Experimental: Purified stage IV-V gametocytes were obtained as previously described [10]. Single point ATP bioluminescence assay and dose–response of positive hits was determined in accordance with the previously published protocol [10].

HepG2 cells = experiment: Cytotoxicity in HepG2 cells (intracellular ATP, ATPlite, 48 h); format: cell-based, human; settings: IC50 HepG2 divided by IC50 P. falciparum gametocytes
[2] = as above; format: cell-based, human; settings: human, HepG2 cells
[3] = tested on: P. falciparum asexual stages; settings: cited from earlier work; for pIC50: asexual stages, read-out: IC50 asexual
[4] = tested on: P. falciparum stage V gametocytes; experiment: microbe, parasite or virus in culture; design: BacTiter-Glo ATP luminescence viability of purified stage V gametocytes in 384-well plates, per cent inhibition versus DMSO; settings: Plasmodium falciparum, 48 h, read-out: % Inhibition
[5] = Plasmodium falciparum, read-out: IC50 Pf Gametocytes average, IC50 (µM) average
[6] = Plasmodium falciparum, sexual stages (gametocytes), dose-response, read-out: IC50 sexual
[7] = HepG2, 48 h exposure, intracellular ATP, read-out: IC50 (μM) Cytotoxicity HepG2
[8] = IC50 per ratio column head, unit inferred, read-out: Cytotoxicity in HepG2
[9] = P. falciparum asexual stages, TCAMS data, read-out: IC50 (µM) Pf asexual stages
[10] = sexual stages (gametocytes), dose-response, read-out: IC50 sexual

| Structure (SMILES) | Ratio IC50 HepG2/IC50 P. falciparum [1] | IC50 [1, 5] [µM] | pIC50 [1, 6] | Ratio IC50 HepG2/IC50 P. falciparum (HepG2 cells) | IC50 at 48 h [2, 7] [µM] | IC50 at 48 h [2, 8] [µM] | IC50 [3, 9] [µM] | pIC50 ([3]; TCAMS data) | pIC50 [1, 10] | pIC50 ([1]; Plasmodium falciparum, gametocytes (GC), value as repeated in the Clusters sheet, read-out: IC50 GC) | pIC50 ([2]; IC50 per ratio column head, unit inferred) | IC50 ([3]; as previously determined for TCAMS, read-out: IC50 (μM) Pf Asexual stages) [µM] | IC50 ([1]; Plasmodium falciparum, dose-response, read-out: IC50 Pf Gametocytes average IC50 (µM) average) [µM] | IC50 at 48 h ([2]; read-out: Cytotoxicity in HepG2 IC50 (µM) Malaria DPU) [µM] | inhibition at 5 µM [4] [%] |
| --- | --- | --- | --- | --- | --- | --- | --- | --- | --- | --- | --- | --- | --- | --- | --- |
| CCOc1ccc2nc3cc(NC(=O)c4ccco4)ccc3c(N)c2c1 [TCMDC-125004] | 56 | 0.19 | 6.73 | 56 | 10 | 10.3 | 0.8 | 6.10 |  |  |  |  |  |  |  |
| Oc1ccc(CCNCCCCCCNCCc2ccc(Cl)c3ccccc23)cc1O [TCMDC-131271] | 25 | 0.53 |  | 25 |  | 13.5 |  | 6.15 | 6.27 |  |  |  |  |  |  |
| CCN(CC)C(=NCCCCCCN=C(NC(=N)c1ccc(Cl)cc1)N(CC)CC)NC(=N)c1ccc(Cl)cc1 [TCMDC-131806] | 52 | 0.84 |  | 52 |  | 43.6 |  | 6.42 |  |  |  |  |  |  |  |
| CCN(CC)C(=NC(=N)NCCCCCCNC(=N)N=C(Nc1ccc(Cl)cc1)N(CC)CC)Nc1ccc(Cl)cc1 [TCMDC-131807] | >68 | 0.37 |  | >68 |  | > 25 |  | 6.03 | 6.44 |  |  |  |  |  |  |
| N=C(N=C(NCCCCCCNC(=NC(=N)Nc1ccc(Cl)cc1)N1CCCCC1)N1CCCCC1)Nc1ccc(Cl)cc1 [TCMDC-131811] | 61 | 0.38 |  | 61 |  | 22.9 |  | 6.59 | 6.43 |  |  |  |  |  |  |
| N=C(N=C(NCCCCCCNC(=NC(=N)NCc1ccc(Cl)c(Cl)c1)N1CCCCC1)N1CCCCC1)NCc1ccc(Cl)c(Cl)c1 [TCMDC-131816] | >68 | 0.37 |  | >68 |  | > 25 |  | 6.25 | 6.44 |  |  |  |  |  |  |
| CCN(CC)C(=NC(=N)NCc1ccc(Cl)cc1)NCCCCCCNC(=NC(=N)NCc1ccc(Cl)cc1)N(CC)CC [TCMDC-131817] | >32 | 0.79 |  | >32 |  | > 25 |  | 6.64 |  |  |  |  |  |  |  |
| CCCCN(CCCC)C(=NC(=N)NCc1ccc(Cl)c(Cl)c1)NCCCCCCNC(=NC(=N)NCc1ccc(Cl)c(Cl)c1)N(CCCC)CCCC [TCMDC-131821] | 20 | 0.62 |  | 20 |  | 12.4 |  | 6.40 | 6.21 |  |  |  |  |  |  |
| COc1cc2c(c(Cl)c1OC)CCN(C(=O)C(F)(F)F)CC2c1ccccc1 (stereo not shown) [TCMDC-132071] | >13 | 1.95 |  | >13 |  | > 25 | 0.44 | 6.36 |  |  |  |  |  |  |  |
| Cc1cccc2nc(-c3ccc(-c4ccc(CNCc5ccc(CN)cc5)cc4)s3)[nH]c12 [TCMDC-132809] | 28 | 0.86 |  | 28 |  | 24 |  | 6.35 | 6.07 |  |  |  |  |  |  |
| NCc1ccc(CNCc2cccc(-c3ccc(-c4nc5cc(C(F)(F)F)ccc5[nH]4)cc3)c2)cc1 [TCMDC-132811] | 28 | 0.86 |  | 28 |  | 24.3 |  | 6.58 | 6.07 |  |  |  |  |  |  |
| FC(F)(F)c1ccc2[nH]c(-c3ccc(-c4cccc(CNCCN5CCNCC5)c4)cc3)nc2c1 [TCMDC-132864] | 16 | 1.08 |  | 16 | 18 | 17.5 | 1.03 | 5.99 |  |  |  |  |  |  |  |
| CC(C)(C)c1ccc(CN2CCC(CNC(=O)c3cc(-c4cccc(Cl)c4)cs3)C2)cc1 (stereo not shown) [TCMDC-134446] | 19 | 0.61 | 6.22 | 19 | 11 | 11.3 | 1.16 | 5.94 |  |  |  |  |  |  |  |
| CS(=O)(=O)c1cccc(-c2cnc3[nH]cc(-c4cccc(CCN)c4)c3c2)c1 [TCMDC-136307] | >53 | 0.47 |  | >53 |  | > 25 | 1.56 | 5.81 |  |  |  |  |  |  |  |
| COc1cc(CCNC(=N)/C=C/c2ccc(Cl)cc2)ccc1Cl [TCMDC-137457] | 50 | 0.28 |  | 50 |  | 14 |  | 6.62 |  |  |  |  |  |  |  |
| CCCCN(CCCC)CCCCNc1c2ccccc2nc2ccccc12 [TCMDC-137461] | 35 | 0.55 |  | 35 |  | 19 |  | 6.83 |  |  |  |  |  |  |  |

| Structure (SMILES) | Ratio IC50 HepG2/IC50 P. falciparum [1] | IC50 [1, 5] [µM] | pIC50 [1, 6] | Ratio IC50 HepG2/IC50 P. falciparum (HepG2 cells) | IC50 at 48 h [2, 7] [µM] | IC50 at 48 h [2, 8] [µM] | IC50 [3, 9] [µM] | pIC50 ([3]; TCAMS data) | pIC50 [1, 10] | pIC50 ([1]; Plasmodium falciparum, gametocytes (GC), value as repeated in the Clusters sheet, read-out: IC50 GC) | pIC50 ([2]; IC50 per ratio column head, unit inferred) | IC50 ([3]; as previously determined for TCAMS, read-out: IC50 (μM) Pf Asexual stages) [µM] | IC50 ([1]; Plasmodium falciparum, dose-response, read-out: IC50 Pf Gametocytes average IC50 (µM) average) [µM] | IC50 at 48 h ([2]; read-out: Cytotoxicity in HepG2 IC50 (µM) Malaria DPU) [µM] | inhibition at 5 µM [4] [%] |
| --- | --- | --- | --- | --- | --- | --- | --- | --- | --- | --- | --- | --- | --- | --- | --- |
| COc1ccc2nc3cc(Cl)ccc3c(NCCCCCCNc3c4ccc(Cl)cc4nc4ccc(OC)cc34)c2c1 [TCMDC-137503] | >500 | 0.05 |  | >500 |  | > 25 |  | 6.18 |  |  |  |  |  |  |  |
| CC(C)CCNC(=N)Nc1ccc(OCCCCCOc2ccc(NC(=N)NCCC(C)C)cc2)cc1 [TCMDC-137614] | >49 | 0.51 |  | >49 |  | > 25 |  | 5.97 | 6.29 |  |  |  |  |  |  |
| CC(C)CCNC(=N)Nc1ccc(OCCCOc2ccc(NC(=N)NCCC(C)C)cc2)cc1 [TCMDC-137615] | >86 | 0.29 |  | >86 |  | > 25 |  | 6.70 |  |  |  |  |  |  |  |
| CC1CCCCN1CCCNc1nc(NCc2ccccc2)c2ccccc2n1 (stereo not shown) [TCMDC-137771] | 143 | 0.14 |  | 143 | 20 | 20.1 | 0.95 | 6.02 |  |  |  |  |  |  |  |
| c1cc(C2=N[C@H]3CCCC[C@@H]3N2)ccc1OCCCOc1ccc(C2=N[C@@H]3CCCC[C@H]3N2)cc1 [TCMDC-137803] | >54 | 0.47 |  | >54 |  | > 25 |  | 6.14 | 6.33 |  |  |  |  |  |  |
| CC(=NNC(=S)NCCc1ccccn1)c1ccccn1 [TCMDC-137895] | >17 | 1.49 | 5.83 | >17 |  | > 25 | 0.32 | 6.50 |  | 5.82 |  |  |  |  |  |
| c1ccc2c(c1)cc(CNCCCN1CCN(CCCNCc3cc4ccccc4c4ccccc34)CC1)c1ccccc12 [TCMDC-137914] | 12 | 1.11 |  | 12 |  |  |  | 6.69 |  |  | 4.86 |  |  |  |  |
| CCN(CC)Cc1cc(Nc2c3ccc(Cl)cc3nc3cccc(OC)c23)ccc1O [TCMDC-139222] | >25 | 1 | 6.00 | >25 |  | > 25 | 0.0334 | 7.48 |  |  |  | 0.03 |  |  |  |
| N=C(N)Nc1nc(-c2ccc(NC(=O)Nc3cccc(-c4csc(NC(=N)N)n4)c3)cc2)cs1 [TCMDC-139559] | >17 | 1.43 |  | >17 |  | > 25 |  | 6.00 |  |  |  |  |  |  |  |
| CC(C)CNCc1cccc(-c2cccc(CNCCCN3CCN(C)CC3)c2)c1 [TCMDC-140483] | >16 | 1.56 |  | >16 |  | > 25 |  | 5.93 | 5.81 |  |  |  |  |  |  |
| CC(C)CNCc1cccc(-c2cccc(CN(CCN(C)C)C(=O)Nc3ccccc3)c2)c1 [TCMDC-140592] | 24 | 0.66 |  | 24 |  | 15.8 |  | 6.10 |  |  |  |  |  |  |  |
| CN1CCN(CCCN(Cc2ccc(-c3cccc(CNC4CCCC4)c3)cc2)C(=O)Nc2ccccc2)CC1 [TCMDC-140605] | 81 | 0.18 |  | 81 |  | 14.3 |  | 5.95 | 6.75 |  |  |  |  |  |  |
| CN1CCN(CCCNCc2cccc(-c3ccc(CNCCc4ccccc4)cc3)c2)CC1 [TCMDC-140643] | 44 | 0.41 |  | 44 |  | 18.2 |  | 6.11 | 6.38 |  |  |  |  |  |  |
| Cc1c(Cn2ncc(N3CCC(N)CC3)c(Cl)c2=O)cccc1NC(=O)Nc1ccc(-c2ccccc2)cc1 [TCMDC-141931] | 12 | 1.18 |  | 12 |  | 14.5 |  | 6.16 | 5.93 |  |  |  |  |  |  |
| Nc1cc(C=Cc2ccc([N+](=O)[O-])o2)nc2ccccc12 [TCMDC-142295] | 58 | 0.2 |  | 59 |  | 11.7 | 0.37 | 6.44 |  |  |  |  | 0.21 | 12 | 116 |
